Laboratory results from ChEMBL document CHEMBL3272315, “Synthesis of angiotensin II antagonists containing N- and O-methylated and other amino acid residues” (J Med Chem, 1976).
Non-standard residues stand in square brackets, D forms with d. Residues, ends and D or L forms follow the SMILES beside them. Sar = CNCC(=O)O

Columns and labels:
Rattus norvegicus [1] = test: Potentiation of angiotensin 2-induced of blood pressure in vagotomized and ganglion-blocked rat at 250 ng/kg/min, iv relative to before compound infusion; type: functional
Rattus norvegicus [2] = test: Induction of blood pressure in vagotomized and ganglion-blocked rat at 250 ng/kg/min, iv measured at 3 mins; type: functional
Rattus norvegicus [3] = test: Potentiation of angiotensin 2-induced of blood pressure in vagotomized and ganglion-blocked rat at 6000 ng/kg/min, iv relative to before compound infusion; type: functional
Rattus norvegicus [4] = organism: Rattus norvegicus; test: Induction of pressor in vagotomized and ganglion-blocked rat assessed as initial pressor activity relative to angiotensin 2; type: functional
[5] = Antagonist activity at angiotensin AT2 receptor in rabbit aortic strips assessed as inhibition of angiotensin 2- myotropic mediated response; conditions: Oryctolagus cuniculus; read-out: pA2 (converted)
Rattus norvegicus [6] = test: Induction of blood pressure in vagotomized and ganglion-blocked rat at 250 ng/kg/min, iv measured at 30 mins; type: functional
Rattus norvegicus [7] = test: Induction of blood pressure in vagotomized and ganglion-blocked rat at 6000 ng/kg/min, iv measured at 10 mins; type: functional
[8] = Antagonist activity at angiotensin AT2 receptor in isolated cat adrenal medulla; type: tissue-based, Felis catus
Rattus norvegicus [9] = test: Induction of blood pressure in vagotomized and ganglion-blocked rat at 6000 ng/kg/min, iv measured at 3 mins; type: functional
Felis catus = organism: Felis catus; test: Agonist activity at angiotensin AT2 receptor in isolated cat adrenal medulla assessed as secretory activity relative to angiotensin 2; type: tissue-based
Rattus norvegicus [10] = test: Induction of blood pressure in vagotomized and ganglion-blocked rat at 6000 ng/kg/min, iv measured at 30 mins; type: functional
Rattus norvegicus [11] = test: Induction of blood pressure in vagotomized and ganglion-blocked rat at 250 ng/kg/min, iv measured at 10 mins; type: functional
Rattus norvegicus [12] = test: Potentiation of angiotensin 2-induced blood pressure in acute adrenalectomized rat at 250 ng/kg/min, iv in presence of propranolol relative to before compound infusion; type: functional
Rattus norvegicus [13] = test: Induction of blood pressure in acute adrenalectomized rat at 250 ng/kg/min, iv measured at 30 mins in presence of propranolol (reference value: 3.66 +/- 0.74 mmHg); type: functional
Rattus norvegicus [14] = test: Potentiation of angiotensin 2-induced blood pressure in acute adrenalectomized rat at 250 ng/kg/min, iv relative to before compound infusion; type: functional
Rattus norvegicus [15] = test: Induction of blood pressure in acute adrenalectomized rat at 250 ng/kg/min, iv measured at 3 mins in presence of propranolol (reference value: 0.78 +/- 0.26 mmHg); type: functional
Rattus norvegicus [16] = test: Potentiation of angiotensin 2-induced blood pressure in rat at 250 ng/kg/min, iv relative to before compound infusion; type: functional
Rattus norvegicus [17] = test: Induction of blood pressure in acute adrenalectomized rat at 250 ng/kg/min, iv measured at 30 mins (reference value: 3.66 +/- 0.74 mmHg); type: functional
Rattus norvegicus [18] = test: Induction of blood pressure in acute adrenalectomized rat at 250 ng/kg/min, iv measured at 3 mins (reference value: 0.78 +/- 0.26 mmHg); type: functional
Rattus norvegicus [19] = test: Induction of blood pressure in rat at 250 ng/kg/min, iv measured at 3 mins (reference value: 0.78 +/- 0.26 mmHg); type: functional
Rattus norvegicus [20] = test: Induction of blood pressure in rat at 250 ng/kg/min, iv measured at 30 mins (reference value: 3.66 +/- 0.74 mmHg); type: functional
Rattus norvegicus [21] = organism: Rattus norvegicus; test: Induction of pressor in vagotomized and ganglion-blocked rat assessed as initial pressor activity up to 10 ug/ml relative to angiotensin 2; type: functional
Rattus norvegicus [22] = test: Potentiation of angiotensin 2-induced blood pressure in 6 days adrenalectomized rat at 250 ng/kg/min, iv in presence of propranolol relative to before compound infusion; type: functional
Rattus norvegicus [23] = test: Induction of blood pressure in sham operated rat at 250 ng/kg/min, iv measured at 30 mins (reference value: 3.66 +/- 0.74 mmHg); type: functional
Rattus norvegicus [24] = test: Induction of blood pressure in rat at 250 ng/kg/min, iv measured at 3 mins in presence of propranolol (reference value: 0.78 +/- 0.26 mmHg); type: functional
Rattus norvegicus [25] = test: Induction of blood pressure in sham operated rat at 250 ng/kg/min, iv measured at 3 mins (reference value: 0.78 +/- 0.26 mmHg); type: functional
Rattus norvegicus [26] = test: Potentiation of angiotensin 2-induced blood pressure in sham operated rat at 250 ng/kg/min, iv relative to before compound infusion; type: functional
Rattus norvegicus [27] = test: Induction of blood pressure in 6 days adrenalectomized rat at 250 ng/kg/min, iv measured at 3 mins (reference value: 0.78 +/- 0.26 mmHg); type: functional
Rattus norvegicus [28] = test: Potentiation of angiotensin 2-induced blood pressure in chronic adrenalectomized rat at 250 ng/kg/min, iv in presence of propranolol relative to before compound infusion; type: functional
Rattus norvegicus [29] = test: Induction of blood pressure in 6 days adrenalectomized rat at 250 ng/kg/min, iv measured at 30 mins (reference value: 3.66 +/- 0.74 mmHg); type: functional
Rattus norvegicus [30] = test: Induction of blood pressure in rat at 250 ng/kg/min, iv measured at 30 mins in presence of propranolol (reference value: 3.66 +/- 0.74 mmHg); type: functional
Rattus norvegicus [31] = test: Induction of blood pressure in chronic adrenalectomized rat at 250 ng/kg/min, iv measured at 3 mins (reference value: 0.78 +/- 0.26 mmHg); type: functional
Rattus norvegicus [32] = test: Induction of blood pressure in chronic adrenalectomized rat at 250 ng/kg/min, iv measured at 30 mins (reference value: 3.66 +/- 0.74 mmHg); type: functional

| pA2 [8] | Activity (Felis catus) [%] | SMILES | Ratio (Rattus norvegicus [1]) | Activity (Rattus norvegicus [2]) [mmHg] | Activity (Rattus norvegicus [4]) [%] | Kb [5] [nM] | Activity (Rattus norvegicus [6]) [mmHg] | Activity (Rattus norvegicus [11]) [mmHg] | Ratio (Rattus norvegicus [14]) | Ratio (Rattus norvegicus [16]) | Activity (Rattus norvegicus [17]) [mmHg] | Activity (Rattus norvegicus [18]) [mmHg] | Activity (Rattus norvegicus [19]) [mmHg] | Activity (Rattus norvegicus [20]) [mmHg] | other results |
| --- | --- | --- | --- | --- | --- | --- | --- | --- | --- | --- | --- | --- | --- | --- | --- |
| 9.16 | 0.11 | CC[C@H](C)[C@H](NC(=O)[C@@H]1CCCN1C(=O)[C@H](Cc1cnc[nH]1)NC(=O)[C@@H](NC(=O)[C@H](Cc1ccc(O)cc1)N(C)C(=O)[C@@H](NC(=O)[C@H](CCCNC(=N)N)NC(=O)CNC)C(C)C)[C@@H](C)CC)C(=O)O | 2.14 | 8 | 0.34 | 36.3 | 9.8 | 10 |  |  |  |  |  |  | Ratio (Rattus norvegicus [3]): 12.09; Activity (Rattus norvegicus [7]): 21.6 mmHg; Activity (Rattus norvegicus [9]): 39.2 mmHg; Activity (Rattus norvegicus [10]): 14.4 mmHg |
| 8 | 0.1 | CC[C@H](C)[C@H](NC(=O)[C@H](Cc1ccc(O)cc1)NC(=O)[C@@H](NC(=O)[C@H](CCCNC(=N)N)NC(=O)CNC)C(C)C)C(=O)N[C@@H](Cc1cnc[nH]1)C(=O)N1CCC[C@H]1C(=O)N(C)[C@H](C(=O)O)[C@@H](C)CC | 2.99 | 25.1 | 1.06 | 14.1 | 32 | 36 | 2.53 | 2.99 | 30.33 | 24.66 | 25.1 | 32 | Ratio (Rattus norvegicus [12]): 2.56; Activity (Rattus norvegicus [13]): 17.71 mmHg; Activity (Rattus norvegicus [15]): 21 mmHg |
| 9.31 | 0.01 | CC[C@H](C)[C@H](NC(=O)[C@@H]1CCCN1C(=O)[C@H](Cc1c[nH]cn1)NC(=O)[C@H]([C@@H](C)CC)N(C)C(=O)[C@H](Cc1ccc(O)cc1)NC(=O)[C@@H](NC(=O)[C@H](CCCN=C(N)N)NC(=O)CNC)C(C)C)C(=O)O | 3.26 | 15.66 | 0.46 | 22.9 | 22.8 | 23 |  |  |  |  |  |  |  |
| 8 | < 0.01 | CC[C@H](C)[C@@H](C(=O)N[C@@H](Cc1cnc[nH]1)C(=O)N1CCC[C@H]1C(=O)N(C)[C@H](C(=O)O)[C@@H](C)CC)N(C)C(=O)[C@H](Cc1ccc(O)cc1)NC(=O)[C@@H](NC(=O)[C@H](CCCNC(=N)N)NC(=O)CNC)C(C)C | 0.62 | 1 |  | 12.9 | 7 | 3.2 |  |  |  |  |  |  | Activity (Rattus norvegicus [21]): 0%; Ratio (Rattus norvegicus [3]): 0.82; Activity (Rattus norvegicus [7]): 3.16 mmHg; Activity (Rattus norvegicus [9]): 2.5 mmHg; Activity (Rattus norvegicus [10]): 7.33 mmHg |
| 8.16 | 1.01 | CC[C@H](C)[C@H](NC(=O)[C@@H]1CCCN1C(=O)[C@H](Cc1cnc[nH]1)NC(=O)[C@@H](NC(=O)[C@H](Cc1ccc(O)cc1)NC(=O)[C@@H](NC(=O)[C@H](CCCNC(=N)N)NC(=O)[C@H](CC(=O)O)NC)C(C)C)[C@@H](C)CC)C(=O)O | 33.43 | 10.14 | 0.76 | 1.82 | 16.57 | 16.57 |  |  |  |  |  |  |  |
| 9.33 | 0.05 | CC[C@H](C)[C@H](NC(=O)[C@H](Cc1ccc(O)cc1)NC(=O)[C@@H](NC(=O)[C@H](CCCNC(=N)N)NC(=O)CNC)C(C)C)C(=O)N[C@@H](Cc1cnc[nH]1)C(=O)N1CCC[C@H]1C(=O)N[C@@H](CO)C(=O)O (H-[Sar]RVYIHPS-OH) | 11.15 | 9.57 | 0.66 | 8.32 | 11.42 | 9.57 |  |  |  |  |  |  |  |
| 9.16 | < 0.01 | CC[C@H](C)[C@H](NC(=O)[C@H](Cc1ccc(O)cc1)NC(=O)[C@@H](NC(=O)[C@H](CCCNC(=N)N)NC(=O)CNC)C(C)C)C(=O)N[C@@H](Cc1cnc[nH]1)C(=O)N1CCC[C@H]1C(=O)N[C@@H](CCSC)C(=O)O (H-[Sar]RVYIHPM-OH) |  | 36.75 | 3.74 | 2.34 | 32.5 | 36.75 |  |  |  |  |  |  |  |
| 7 | 0.1 | CC[C@H](C)[C@H](NC(=O)[C@H](Cc1ccc(O)cc1)NC(=O)[C@@H](NC(=O)[C@H](CCCNC(=N)N)NC(=O)CNC)C(C)C)C(=O)N[C@@H](Cc1cnc[nH]1)C(=O)N1CCC[C@H]1C(=O)N[C@H](C(=O)O)[C@@H](C)OC |  |  |  |  |  |  | 22.96 | 62.52 | 7.62 | 7.75 | 13.82 | 15.63 | Ratio (Rattus norvegicus [12]): 54.16; Ratio (Rattus norvegicus [22]): 11.61; Activity (Rattus norvegicus [23]): 11 mmHg; Activity (Rattus norvegicus [24]): 11.5 mmHg; Activity (Rattus norvegicus [25]): 19.25 mmHg; Ratio (Rattus norvegicus [26]): 45.86; Activity (Rattus norvegicus [27]): 3 mmHg; Ratio (Rattus norvegicus [28]): 12.06; Activity (Rattus norvegicus [29]): -0.4 mmHg; Activity (Rattus norvegicus [30]): -1.25 mmHg; Activity (Rattus norvegicus [31]): 5 mmHg; Activity (Rattus norvegicus [32]): 2.25 mmHg |
| 9.5 | 3 | CC[C@H](C)[C@H](NC(=O)[C@@H]1CCCN1C(=O)[C@H](Cc1c[nH]cn1)NC(=O)[C@@H](NC(=O)[C@H](Cc1ccc(O)cc1)NC(=O)[C@@H](NC(=O)[C@H](CCCN=C(N)N)NC(=O)CNC)C(C)C)[C@@H](C)CC)C(=O)O |  |  |  | 0.676 |  |  | 6.04 | 27.79 | 1.8 | 8.9 | 17.81 | 14.81 |  |
| 9 | 0 | CC[C@H](C)[C@H](NC(=O)[C@H](Cc1ccc(O)cc1)NC(=O)[C@@H](NC(=O)[C@H](CCCN=C(N)N)NC(=O)CNC)C(C)C)C(=O)N[C@@H](Cc1c[nH]cn1)C(=O)N1CCC[C@H]1C(=O)N[C@H](C(=O)O)[C@@H](C)O (H-[Sar]RVYIHPT-OH) | 26.9 |  |  |  |  |  | 5.52 |  | 4.57 | 7.57 | 9.46 | 9.2 |  |
